In patent US11623869B2 (UNIVERSIDADE ESTADUAL DE CAMPINAS—UNICAMP, priority 2017, dated 2023):

Tested on: non-muscle invasive bladder cancer (CBNMI)
Assay: Adjuvancy of intravesical MRB-CFI-1 and systemic cisplatin in NMIBC rats, histopathology
Type: in vivo, Fischer 344 female rats
Text: The protocol for use of animals in research was approved by the Ethics Committee on the Use of Animals (CEUA)—UNICAMP (protocol number: 4324-1).

[1] = MNU rats, MRB-CFI-1 intravesical 20 mg/kg 6 weeks and/or cisplatin i.p. […] weekly 4 weeks, n = 7

For `N.N.[Cl][Pt][Cl]` [cisplatin], the “decrease in the progression of urothelial neoplastic lesions, percentage of animals” value (MNU rats, same treatments) was 14.28%, the “Carcinoma in situ (Ptis), percentage of animals” value [1] was 14.28% and the “Papillary carcinoma (pTa), percentage of animals” value [1] was 57.14%. For the same compound, the “Papilliferous hyperplasia, percentage of animals” value [1] was 14.28%, the “Urothelial carcinoma with lamina propria invasion (pT1), percentage of animals” value [1] was 14.28% and the “Carcinoma in situ (Ptis), number of animals” value (same treatments, of n = 7) was 1. The “Papillary carcinoma (pTa), number of animals” value (same treatments, of n = 7) was 4, the “Papilliferous hyperplasia, number of animals” value (same treatments, of n = 7) was 1 and the “Urothelial carcinoma with lamina propria invasion (pT1), number of animals” value (same treatments, of n = 7) was 1.
